{"source": "paper PMC12281424", "about": "“A Rac-specific competitive inhibitor of guanine nucleotide binding reduces metastasis in triple-negative breast cancer” (Cell Reports Medicine, 2025)", "key": {"MRCKγ(h)": {"target": "MRCKγ(h) (Homo sapiens, UniProt Q6DT37)", "sequence (Q6DT37 whole entry)": "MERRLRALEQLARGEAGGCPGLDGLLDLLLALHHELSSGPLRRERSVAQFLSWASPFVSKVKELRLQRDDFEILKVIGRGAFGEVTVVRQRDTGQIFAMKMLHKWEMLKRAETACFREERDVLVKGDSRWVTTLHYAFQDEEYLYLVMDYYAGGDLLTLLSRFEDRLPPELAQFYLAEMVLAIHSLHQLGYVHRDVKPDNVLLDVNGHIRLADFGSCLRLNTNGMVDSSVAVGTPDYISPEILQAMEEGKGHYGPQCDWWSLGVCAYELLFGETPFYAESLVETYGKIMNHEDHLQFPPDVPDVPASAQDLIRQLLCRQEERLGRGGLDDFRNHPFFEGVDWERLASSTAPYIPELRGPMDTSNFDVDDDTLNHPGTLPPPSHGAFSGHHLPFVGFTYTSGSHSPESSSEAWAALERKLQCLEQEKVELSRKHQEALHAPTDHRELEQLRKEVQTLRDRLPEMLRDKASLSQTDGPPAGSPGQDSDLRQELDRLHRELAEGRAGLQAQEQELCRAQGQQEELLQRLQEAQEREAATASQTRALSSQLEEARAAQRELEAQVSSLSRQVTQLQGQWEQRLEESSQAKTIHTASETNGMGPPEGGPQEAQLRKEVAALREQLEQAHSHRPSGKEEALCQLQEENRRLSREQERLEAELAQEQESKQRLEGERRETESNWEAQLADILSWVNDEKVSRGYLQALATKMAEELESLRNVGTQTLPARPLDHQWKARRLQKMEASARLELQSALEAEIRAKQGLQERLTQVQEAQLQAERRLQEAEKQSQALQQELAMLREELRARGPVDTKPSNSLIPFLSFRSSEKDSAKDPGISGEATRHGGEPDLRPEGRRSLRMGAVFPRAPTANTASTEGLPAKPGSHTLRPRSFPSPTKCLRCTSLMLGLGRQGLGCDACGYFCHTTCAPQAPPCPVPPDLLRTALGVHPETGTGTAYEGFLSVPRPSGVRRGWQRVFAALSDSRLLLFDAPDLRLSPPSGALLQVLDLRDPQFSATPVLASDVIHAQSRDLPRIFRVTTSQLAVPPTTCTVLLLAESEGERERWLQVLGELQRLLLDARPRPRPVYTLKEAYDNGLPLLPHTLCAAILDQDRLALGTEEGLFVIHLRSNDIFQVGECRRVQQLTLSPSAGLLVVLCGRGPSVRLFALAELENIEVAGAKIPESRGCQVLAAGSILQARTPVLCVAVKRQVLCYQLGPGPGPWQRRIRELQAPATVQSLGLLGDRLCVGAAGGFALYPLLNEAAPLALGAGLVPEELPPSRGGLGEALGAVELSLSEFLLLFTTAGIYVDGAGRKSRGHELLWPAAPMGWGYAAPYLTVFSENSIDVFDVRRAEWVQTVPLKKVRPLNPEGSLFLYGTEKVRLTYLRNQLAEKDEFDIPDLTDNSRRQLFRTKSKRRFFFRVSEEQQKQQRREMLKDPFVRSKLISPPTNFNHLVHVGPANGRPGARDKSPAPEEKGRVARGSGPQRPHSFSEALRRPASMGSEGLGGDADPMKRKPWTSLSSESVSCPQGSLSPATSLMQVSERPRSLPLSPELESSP", "assay": "Kinase Profiler", "format": "biochemical", "experimental": "(§1) The kinase profiler was performed by the company Eurofins (Discovery, Panlab and Cerep)."}, "Muscarinic M1": {"target": "Muscarinic M1 (Homo sapiens, UniProt P11229)", "assay": "Safety screen", "format": "binding", "experimental": "(§2) Blood cell counts, kinase profiler, safety screen, bacterial cytotoxicity, Ames, micronucleus assays were performed by the company Eurofins (France)."}, "Transporter, Adenosine": {"test_system": "Transporter, Adenosine", "assay": "Safety screen", "format": "binding, guinea pig", "experimental": "as §2"}, "Pim-3(h)": {"target": "Pim-3(h) (Homo sapiens, UniProt Q86V86)", "assay": "Kinase Profiler", "format": "biochemical", "experimental": "(§3) Blood cell counts, kinase profiler, safety screen, bacterial cytotoxicity, Ames, micronucleus assays were performed by the company Eurofins (France). The kinase profiler was performed by the company Eurofins (Discovery, Panlab and Cerep)."}, "Arg(m)": {"target": "Arg(m) (Mus musculus, UniProt Q4JIM5)", "assay": "Kinase Profiler", "format": "biochemical", "experimental": "as §3"}, "Met(D1246H)(h)": {"target": "Met(D1246H)(h) (Homo sapiens, UniProt P08581, D1228H)", "assay": "Kinase Profiler", "format": "biochemical", "experimental": "as §1"}, "SRPK2(h)": {"target": "SRPK2(h) (Homo sapiens, UniProt P78362)", "sequence (P78362 whole entry)": "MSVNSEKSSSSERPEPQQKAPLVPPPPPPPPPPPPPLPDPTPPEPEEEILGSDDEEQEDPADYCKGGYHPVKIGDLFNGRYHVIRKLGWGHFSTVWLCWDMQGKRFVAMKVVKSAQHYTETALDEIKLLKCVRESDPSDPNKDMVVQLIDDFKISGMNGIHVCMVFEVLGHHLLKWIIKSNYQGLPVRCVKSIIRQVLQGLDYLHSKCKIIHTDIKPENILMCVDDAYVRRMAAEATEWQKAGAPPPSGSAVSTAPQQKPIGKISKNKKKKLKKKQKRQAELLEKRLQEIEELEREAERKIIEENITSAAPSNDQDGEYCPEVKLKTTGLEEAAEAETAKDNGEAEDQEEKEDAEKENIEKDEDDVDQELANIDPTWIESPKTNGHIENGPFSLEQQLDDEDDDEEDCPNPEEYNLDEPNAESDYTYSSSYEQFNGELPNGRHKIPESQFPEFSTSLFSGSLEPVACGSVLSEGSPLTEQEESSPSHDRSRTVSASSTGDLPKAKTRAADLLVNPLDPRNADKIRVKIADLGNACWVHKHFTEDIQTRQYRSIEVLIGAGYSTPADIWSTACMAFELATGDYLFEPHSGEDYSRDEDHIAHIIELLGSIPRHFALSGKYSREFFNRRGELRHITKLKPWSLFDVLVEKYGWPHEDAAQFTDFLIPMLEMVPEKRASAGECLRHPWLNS", "assay": "Kinase Profiler", "format": "biochemical", "experimental": "as §1"}, "MELK(h)": {"target": "MELK(h) (Homo sapiens, UniProt Q14680)", "assay": "Kinase Profiler", "format": "biochemical", "experimental": "as §1"}, "[1]": {"test_system": "RAC1-dependent membrane ruffle formation in NIH 3T3 cells", "assay": "EGF-induced membrane ruffle formation", "format": "cell-based", "settings": "EGF 10 ng/mL, inhibitors added 1 h prior; read-out: IC50, inhibition of ruffles formation", "method": "Figure 2 Identification of a new RAC1 inhibitor (A) Effect of A41 and NSC23766 on ruffle formation (white arrows) induced by EGF (10 ng/mL) in NIH 3T3 cells in serum-free culture medium (CTL). Inhibitors were added at indicated concentration 1 h prior to EGF stimulation. To assess cytoskeleton organization, cells were incubated with Alexa Fluor 488 phalloidin to visualize F-actin. Results shown are representative of 3 independent experiments. Corresponding concentration-response curves have been established by counting the percentages of cells with ruffles (scale bars: 10 μm). (B) Immunoblot analysis and associated quantification of RAC-GTP level and total RAC expression in NIH 3T3 cells stimulated by EGF (10 ng/mL, 5 min) and pre-incubated or not (−) with NSC23766, A41, or A415 at 10^−5 M for 1 h (∗∗∗p < 0.001 vs. controls without EGF stimulation, ^###p < 0.001 vs. controls with EGF stimulation) (N > 3). […] (D) Representative in vitro nucleotide exchange catalyzed by the DH-PH of TIAM (10 nM) measured by the binding of fluorescent mant-GTP (1 μM) to RAC1 (0.5 μM, preloaded with GDP) in the presence of indicated concentrations of A41 (out of N = 6). […] (E) Kobs and Kmax were determined in each condition (N = 6). […]\nAfter indicated treatments, cells were fixed with 4% paraformaldehyde and permeabilized in PBS 0.5% Triton X-100. […] Cancer cells were detected with firefly luciferase antibody (ab21176, Abcam) (dilution 1/500) overnight at room temperature, followed by secondary Alexa 488-labeled anti-rabbit antibody (dilution 1/1000). […] After staining, cells were mounted in Prolong gold antifade reagent with DAPI and images were captured by a fluorescence microscope. […]\nSupp. […] For each molecule, druglikeness has been assessed according to Lipinski’s rules: molecular weight (MW)<500; high lipophilicity (LogP<5); less than 5 hydrogen bond donors (HBD); less than 10 hydrogen bond acceptors (HBA). The log P was calculated by using OSIRIS – Data Warrior software. […] IC50 was determined experimentally from the inhibition"}, "[2]": {"target": "PI3K (p110a(E545K)/p85a)(m) (Mus musculus, UniProt P42337, E545K)", "assay": "Kinase Profiler", "format": "biochemical", "experimental": "as §3"}, "STK16(h)": {"target": "STK16(h) (Homo sapiens, UniProt O75716)", "sequence (O75716 whole entry)": "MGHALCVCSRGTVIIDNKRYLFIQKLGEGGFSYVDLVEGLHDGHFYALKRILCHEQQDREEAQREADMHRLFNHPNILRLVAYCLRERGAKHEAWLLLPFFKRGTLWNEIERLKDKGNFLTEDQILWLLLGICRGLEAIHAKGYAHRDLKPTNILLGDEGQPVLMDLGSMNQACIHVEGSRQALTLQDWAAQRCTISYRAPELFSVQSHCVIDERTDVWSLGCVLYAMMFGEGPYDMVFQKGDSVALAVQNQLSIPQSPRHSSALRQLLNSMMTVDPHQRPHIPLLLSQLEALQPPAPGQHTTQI", "assay": "Kinase Profiler", "format": "biochemical", "experimental": "as §1"}, "SAPK3(h)": {"target": "SAPK3(h) (Homo sapiens, UniProt P53778)", "sequence (P53778 whole entry)": "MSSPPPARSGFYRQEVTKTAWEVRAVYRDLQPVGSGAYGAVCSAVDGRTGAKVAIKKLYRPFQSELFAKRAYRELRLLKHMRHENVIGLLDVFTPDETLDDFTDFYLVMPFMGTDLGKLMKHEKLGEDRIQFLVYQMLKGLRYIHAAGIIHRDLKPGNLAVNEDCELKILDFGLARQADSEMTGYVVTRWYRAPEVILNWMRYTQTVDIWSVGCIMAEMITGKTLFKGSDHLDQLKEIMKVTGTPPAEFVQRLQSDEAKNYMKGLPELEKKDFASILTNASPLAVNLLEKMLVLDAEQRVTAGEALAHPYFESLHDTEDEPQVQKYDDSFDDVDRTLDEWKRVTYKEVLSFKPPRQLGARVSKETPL", "assay": "Kinase Profiler", "format": "biochemical", "experimental": "as §1"}, "SIK(h)": {"target": "SIK(h) (Homo sapiens, UniProt P57059)", "assay": "Kinase Profiler", "format": "biochemical", "experimental": "as §1"}, "ZAP-70(h)": {"target": "ZAP-70(h) (Homo sapiens, UniProt P43403)", "assay": "Kinase Profiler", "format": "biochemical", "experimental": "as §1"}, "[3]": {"target": "Serotonin (5-Hydroxytryptamine) 5-HT3 (Homo sapiens, UniProt P46098)", "assay": "Safety screen", "format": "binding", "experimental": "as §2"}, "Cyclooxygenase COX-1": {"target": "Cyclooxygenase COX-1 (Homo sapiens, UniProt P23219)", "assay": "Safety screen", "format": "biochemical", "experimental": "as §3"}, "PIP4K2a(h)": {"target": "PIP4K2a(h) (Homo sapiens, UniProt P48426)", "assay": "Kinase Profiler", "format": "biochemical", "experimental": "as §1"}, "PI3K (p110d/p85a)(m)": {"target": "PI3K (p110d/p85a)(m) (Mus musculus, UniProt O35904)", "sequence (O35904 whole entry)": "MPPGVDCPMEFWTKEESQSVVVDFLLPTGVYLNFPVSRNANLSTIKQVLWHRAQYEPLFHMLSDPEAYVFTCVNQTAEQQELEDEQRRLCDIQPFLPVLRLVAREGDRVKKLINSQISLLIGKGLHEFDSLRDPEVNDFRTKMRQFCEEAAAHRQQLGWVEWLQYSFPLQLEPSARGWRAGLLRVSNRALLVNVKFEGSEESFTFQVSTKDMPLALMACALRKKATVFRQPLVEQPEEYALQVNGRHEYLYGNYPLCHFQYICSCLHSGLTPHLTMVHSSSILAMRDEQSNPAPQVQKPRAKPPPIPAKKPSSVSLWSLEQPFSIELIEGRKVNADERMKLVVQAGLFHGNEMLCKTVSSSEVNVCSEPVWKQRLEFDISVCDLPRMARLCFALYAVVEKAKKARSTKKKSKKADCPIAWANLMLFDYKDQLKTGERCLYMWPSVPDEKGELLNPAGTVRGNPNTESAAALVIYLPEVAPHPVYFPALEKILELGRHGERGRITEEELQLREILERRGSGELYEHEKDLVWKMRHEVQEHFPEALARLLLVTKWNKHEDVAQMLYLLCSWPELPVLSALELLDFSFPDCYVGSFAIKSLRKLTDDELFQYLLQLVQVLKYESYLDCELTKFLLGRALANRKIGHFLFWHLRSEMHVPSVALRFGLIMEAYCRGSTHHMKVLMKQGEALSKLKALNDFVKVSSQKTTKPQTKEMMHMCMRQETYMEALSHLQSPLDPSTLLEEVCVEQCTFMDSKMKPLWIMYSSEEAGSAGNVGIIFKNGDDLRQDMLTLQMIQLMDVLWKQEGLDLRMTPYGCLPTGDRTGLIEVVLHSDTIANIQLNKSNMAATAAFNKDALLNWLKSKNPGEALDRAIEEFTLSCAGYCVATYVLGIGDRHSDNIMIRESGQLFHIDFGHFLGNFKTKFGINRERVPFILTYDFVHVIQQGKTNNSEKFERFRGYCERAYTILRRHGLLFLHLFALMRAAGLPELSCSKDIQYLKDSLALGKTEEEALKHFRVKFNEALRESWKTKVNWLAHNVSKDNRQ", "sequence (P26450 2-724 partner)": "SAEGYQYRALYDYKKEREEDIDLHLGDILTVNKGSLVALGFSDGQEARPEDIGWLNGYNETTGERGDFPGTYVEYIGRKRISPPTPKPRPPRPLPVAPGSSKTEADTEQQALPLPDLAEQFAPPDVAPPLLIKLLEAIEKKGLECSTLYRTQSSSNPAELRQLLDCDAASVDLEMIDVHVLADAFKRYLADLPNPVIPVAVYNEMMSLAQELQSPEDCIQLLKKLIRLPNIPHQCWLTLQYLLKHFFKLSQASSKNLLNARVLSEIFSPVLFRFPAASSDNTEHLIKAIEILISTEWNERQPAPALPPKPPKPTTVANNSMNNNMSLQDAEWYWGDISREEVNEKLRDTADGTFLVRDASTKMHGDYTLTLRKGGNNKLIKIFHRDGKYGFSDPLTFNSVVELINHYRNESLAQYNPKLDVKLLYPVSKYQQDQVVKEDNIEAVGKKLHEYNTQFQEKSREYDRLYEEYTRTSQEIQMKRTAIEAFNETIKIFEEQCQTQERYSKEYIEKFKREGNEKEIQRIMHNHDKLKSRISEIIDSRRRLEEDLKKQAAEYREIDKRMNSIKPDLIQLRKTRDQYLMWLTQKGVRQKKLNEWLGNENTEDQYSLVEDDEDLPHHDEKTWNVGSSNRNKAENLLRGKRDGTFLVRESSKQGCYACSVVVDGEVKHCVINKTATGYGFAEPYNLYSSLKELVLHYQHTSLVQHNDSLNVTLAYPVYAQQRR", "assay": "Kinase Profiler", "format": "biochemical", "experimental": "as §3"}}, "data": [{"smiles": "COc1ccc(OC)c(NS(=O)(=O)c2ccc(NC(=O)CCSc3ccc(C)cc3)cc2)c1", "note": "[Compound A41]", "values": [{"measurement": "Activity(%)", "setting": "MRCKγ(h)", "result": 97, "unit": "%"}, {"measurement": "% inh.", "setting": "Muscarinic M1", "result": 11, "unit": "%"}, {"measurement": "% inh.", "setting": "Transporter, Adenosine", "result": 37, "unit": "%"}, {"measurement": "Activity(%)", "setting": "Pim-3(h)", "result": 101, "unit": "%"}, {"measurement": "Activity(%)", "setting": "Arg(m)", "result": 109, "unit": "%"}, {"measurement": "Activity(%)", "setting": "Met(D1246H)(h)", "result": 115, "unit": "%"}, {"measurement": "Activity(%)", "setting": "SRPK2(h)", "result": 96, "unit": "%"}, {"measurement": "Activity(%)", "setting": "MELK(h)", "result": 107, "unit": "%"}, {"measurement": "IC50", "setting": "[1]", "result": 2.5, "unit": "nM"}, {"measurement": "Activity(%)", "setting": "[2]", "result": 100, "unit": "%"}, {"measurement": "Activity(%)", "setting": "STK16(h)", "result": 115, "unit": "%"}, {"measurement": "Activity(%)", "setting": "SAPK3(h)", "result": 105, "unit": "%"}, {"measurement": "Activity(%)", "setting": "SIK(h)", "result": 144, "unit": "%"}, {"measurement": "Activity(%)", "setting": "ZAP-70(h)", "result": 108, "unit": "%"}, {"measurement": "% inh.", "setting": "[3]", "result": -2, "unit": "%"}, {"measurement": "% inh.", "setting": "Cyclooxygenase COX-1", "result": -11, "unit": "%"}, {"measurement": "Activity(%)", "setting": "PIP4K2a(h)", "result": 95, "unit": "%"}, {"measurement": "Activity(%)", "setting": "PI3K (p110d/p85a)(m)", "result": 100, "unit": "%"}]}]}
